Data as given in patent US20110082133A1, “PYRIDONE COMPOUNDS” (priority 2008, published 2011).
Where a name gives a salt, the structure may show the parent alone.

Key:
[1] = system: LPS-induced TNF-α production in THP-1 cells; test: Inhibitory action on LPS-induced TNF-α production in THP-1 cells; format: cell-based; conditions: Homo sapiens, 3 hours after LPS, ELISA
Method: Human monocytic cell line THP-1 cells were suspended in an assay medium (PRMI-1640 containing 10% fetal bovine serum, 100 unit/mL penicillin G sodium, and 100 μg/mL streptomycin sulfate), and seeded onto a 96-well plate at 1×10^5 cells/well. 50 μL/well of an assay medium containing a test compound was added thereto, followed by incubation at 37° C. for 30 minutes. Further, 50 μL/well of an assay medium containing 1 to 5 μg/mL of LPS was added thereto, and the TNF-α concentration in the assay medium of each well after 3 hours was measured. The measurement was carried out by means of a standard ELISA method. A 96-well plate which had been coated overnight with an anti-human TNF monoclonal antibody (clone: MAb1) (manufactured by Becton, Dickinson and Company) as a capture antibody was washed with a wash buffer (PBS containing 0.05% Tween-20), and PBS containing 10% fetal bovine serum was incubated at room temperature for 1 hour to perform blocking. After washing with a wash buffer, 100 μL/well of the assay medium to be measured was incubated at 4° C. overnight. As the standard material to be measured, a recombinant human TNF (manufactured by Becton, Dickinson and Company) was used. After washing with a wash buffer, 100 μL of a biotinylated anti-human TNF monoclonal antibody (clone: MAb11) as a detection antibody was treated at room temperature for 1 hour. After washing with a wash buffer, it was treated with 100 μL/well of an HRP-labeled Streptavidin (manufactured by Zymed Laboratories, Inc.) at room temperature for 30 minutes, and washed again. Treatment was conducted using 100 μL/well of a TMB (3,3′,5,5′-tetramethylbenzidine) substrate liquid at room temperature for 20 minutes in a dark room. A 2 M sulfuric acid was added thereto at 50 μL/well to stop the reaction, and an absorbance at 450 nm/570 nm was measured by means of a plate reader SPECRA max (manufactured by Molecular Devices Inc.).

[2] = system: TNF-α production; test: In vivo TNF-α production inhibiting action in rat (LPS-induced plasma TNF-α); parameters: species or system SD male rats; conditions: oral administration 1 hour before LPS (10 μg/kg i.v.), plasma TNF-α 90 minutes after LPS
Method: LPS (10 μg/kg) was administered to caudal veins of SD male rats, and after 90 minutes from the administration, the heparin blood was collected from the abdominal vena cava to prepare a plasma. The test compound was orally administered 1 hour before the administration of LPS. The amount of TNF-α in the plasma was measured using a BD OptEIA rat TNF ELISA set (manufactured by Becton, Dickinson and Company) according to the attached method. The inhibitory rate by the test compound was determined from the amount of TNF-α in plasma in a control group (administered with a solvent).

[3] = target: T1, rat EP1 receptor (Rattus norvegicus, UniProt P70597); test: Rat EP1 receptor agonistic/antagonistic action (intracellular Ca2+, FLIPR, HEK293 stable expression cells); format: cell-based; conditions: inhibition of intracellular Ca2+ increasing action by PGE2
T1 construct: expressed in transfected cells
T1 sequence (P70597 1-405): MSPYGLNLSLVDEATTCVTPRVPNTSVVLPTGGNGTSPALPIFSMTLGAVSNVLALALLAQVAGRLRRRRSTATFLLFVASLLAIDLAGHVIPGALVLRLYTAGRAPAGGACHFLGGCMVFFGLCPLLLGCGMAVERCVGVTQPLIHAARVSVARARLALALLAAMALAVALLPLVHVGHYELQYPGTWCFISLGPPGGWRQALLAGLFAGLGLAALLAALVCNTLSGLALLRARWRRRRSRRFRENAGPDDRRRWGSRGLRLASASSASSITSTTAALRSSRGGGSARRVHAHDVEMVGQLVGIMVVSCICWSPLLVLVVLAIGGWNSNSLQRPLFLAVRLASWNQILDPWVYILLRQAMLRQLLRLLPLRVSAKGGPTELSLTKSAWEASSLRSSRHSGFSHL
Method: Using rat EP1 or rat EP3β receptor stable expression cells, the intracellular Ca^2+ concentration was measured using a fluorescent imaging plate reader (FLIPR manufactured by Molecular Devices Corporation). The agonistic activity was evaluated by the intracellular Ca^2+ increasing action of the test compound, and the antagonistic activity was evaluated by the inhibiting action of the test compound on the intracellular Ca^2+ increasing action by PGE2.
The cDNA of the rat EP 1 or EP3β receptor was subcloned into an expression vector (pcDNA3.1-V5-His-topo, manufactured by Invitrogen Corporation). This expression vector was introduced into HEK293 cells (American Type Culture Collection) to prepare a rat EP1 or EP3β receptor stable expression cell line. These cells were seeded onto a 96-well poly-D-lysin treated black wall clear bottom plate (manufactured by Becton, Dickinson and Company) at 2 to 3×10^4 cell/well, and used for the experiment the next day. The measurement of the intracellular Ca^2+ concentration was carried out by an FLIPR calcium 3 assay kit (manufactured by Molecular Devices Corporation). The culture medium of each well was removed by suction and replaced with a loading buffer (Hank's balanced salt solution containing 20 mM HEPES-NaOH (pH 7.4), 2.5 mM Probenecid, 0.1% bovine serum albumin, and a color), followed by incubating at room temperature for 3 hours and loading a color. For the evaluation of the agonistic action, the change in the intracellular Ca^2+ concentration was determined from the difference in the maximum value of the intracellular Ca^2+ concentration after the addition of the test compound and the value before the addition of the test compound. For the evaluation of the antagonistic action, after incubating the test compound for 5 minutes, PGE2 was added thereto to determine the change in the intracellular Ca^2+ concentration by PGE2.
Further, NE means that the action has no significance.

[4] = target: rat EP4 receptor (Rattus norvegicus, UniProt P43114); test: EP4 receptor agonistic action in rat (cAMP increasing action in rat EP4 receptor expression CHO-K1 cells); format: cell-based; parameters: expressed in transfected cells; conditions: cAMP increasing action by 1 μM PGE2 taken as 100%
Method: The agonistic activity was evaluated by the cAMP increasing action in the rat EP4 receptor expression cells. The rat EP4 receptor expression vector was introduced into CHO-K1 cells (American Type Culture Collection) to prepare a rat EP4 receptor stable expression cell line. These cells were seeded onto a 96-well microplate at 2×10^4 cell/well, and used for the experiment the next day. The culture medium of each well was removed by suction, 100 μL/well of an assay culture medium (2 μM indomethacin, 0.1% bovine serum albumin-containing α-MEM) was added thereto, and incubated at 37° C. for 1 hour. The culture medium was removed again by suction, and replaced with 100 μL/well of an assay culture medium comprising a test compound and 1 mM IBMX (3-isobutyl-1-methylxanthine). After incubating at 37° C. for 30 minutes, the culture medium was removed by suction, 100 μL/well of a cell lysate (0.2% Triton-X100-containing phosphate buffer physiological saline) was put thereinto, and the plate was shaken for 10 minutes. Using a cAMP femto 2 kit (manufactured by Cis Bio International), the cAMP concentration in the cell lysate was measured. Further, the cAMP increasing action (%) was calculated with the cAMP increasing action by 1 μM PGE2 was taken as 100%.

rat EP4 receptor, sequence (P43114 whole entry): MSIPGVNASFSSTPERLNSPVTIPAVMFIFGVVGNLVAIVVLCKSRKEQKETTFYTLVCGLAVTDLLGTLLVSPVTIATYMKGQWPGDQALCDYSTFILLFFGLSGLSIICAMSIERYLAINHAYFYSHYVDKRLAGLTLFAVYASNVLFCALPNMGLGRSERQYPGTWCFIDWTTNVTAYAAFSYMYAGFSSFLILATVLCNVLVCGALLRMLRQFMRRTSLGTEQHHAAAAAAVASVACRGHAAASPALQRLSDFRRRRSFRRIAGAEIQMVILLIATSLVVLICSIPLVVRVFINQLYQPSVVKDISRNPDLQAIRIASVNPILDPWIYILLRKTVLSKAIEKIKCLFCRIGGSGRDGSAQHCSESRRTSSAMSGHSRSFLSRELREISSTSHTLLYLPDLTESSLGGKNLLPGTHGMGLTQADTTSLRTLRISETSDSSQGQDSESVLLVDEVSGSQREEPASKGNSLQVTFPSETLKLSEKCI

Row | IC50 [1] [nM] | IC50 [3] [nM] | cAMP increasing action (%) at 10 μM [4] [%] | SMILES | ED50 [2] [mg/kg]
1 | 11 | 1000 | 65 | O=C(O)c1ccc(CCn2c(CN3CCc4ccc(F)cc43)c(Cl)cc(Cl)c2=O)cc1 [Example 9, 4-(2-{3,5-dichloro-6-[(6-fluoro-2,3-dihydro-1H-indol-1-yl)methyl]-2-oxopyridin-1(21-1)-yl}ethyl)benzoic acid] | 4.3
2 | 9.4 | 2100 | 58 | CCC[C@H]1CCCN1Cc1c(Cl)cc(Cl)c(=O)n1CCc1ccc(C(=O)O)cc1 [Example 17, 4-{2-[3,5-dichloro-2-oxo-6-{[(2S)-2-propylpyrrolidin-1-yl]methyl}pyridin-1(2H)-yl]ethyl}benzoic acid trifluoroacetate] | 0.15
3 | 40 | > 10000 | 76 | O=C(O)c1ccc(CCn2c(CNc3cccc(OC(F)(F)F)c3)c(Cl)cc(Cl)c2=O)cc1 [Example 107] | 1
4 | 29 | 2700 | 79 | CN(Cc1c(Cl)cc(Cl)c(=O)n1CCc1ccc(C(=O)O)cc1)c1cccc(Cl)c1 [Example 160] | 2.3
